# Where two headings read alike, the source gives them in different places.
# Assay: Pharmacokinetics of acetate of Compound 22 in SD rats with single and repeated administration
# Type: in vivo
# Settings: Sprague-Dawley, rat, plasma; for AUC(0-t): read-out: AUC0-t; for Cmax: read-out: Cmax; for half-life: read-out: T1/2 (converted); for Tmax: read-out: Tmax (median)
# Method: The formulation for Group 5 was prepared before administration on Day 1, and then, divided into daily doses and stored at 5±3° C. After taking out the formulations on the day of administration, the formulations should be let stand at room temperature for at least 30 minutes before administration.
# After blood collection, the blood collection tube containing the anticoagulant was turned upside down several times to mix well, and placed on wet ice before centrifugation. Within 60 minutes after blood collection, the samples were centrifuged at 2000 g for 10 minutes at 2-8° C. to separate red blood cells, thereby obtaining plasma samples. The plasma samples were transferred to cryovials and stored at −75±15° C. until analysis.
# Blood samples were collected from SD rats at room temperature before administration and within 24 hours after administration. All collected samples were placed on wet ice before centrifugation and stored at −75±15° C. until analysis.
# The mass spectrometer was Applied Biosystems/AB Sciex Triple Quad 4500.
# Pharmacokinetic data was calculated using the linear logarithmic trapezoidal method, with a weight of 1/(Y*Y). Samples with the sample concentration below the lower limit of quantification were excluded from the calculation of pharmacokinetic parameters. […] The mean time to peak (Tmax) was represented as a median.
# [1] = both sexes, po, 63 mg/kg, Group 5 PO 63 mg/kg repeated, Day 7, Overall
# [2] = both sexes, po, 189 mg/kg, Group 4 PO 189 mg/kg single, Overall
# [3] = female, iv, 2 mg/kg, Group 1 IV 2.0 mg/kg single, Female
# [4] = female, po, 21 mg/kg, Group 2 PO 21 mg/kg single, Female
# [5] = female, po, 63 mg/kg, Group 3 PO 63 mg/kg single, Female
# [6] = female, po, 63 mg/kg, Group 5 PO 63 mg/kg repeated, Day 1, Female
# [7] = female, po, 63 mg/kg, Group 5 PO 63 mg/kg repeated, Day 7, Female
# [8] = female, po, 189 mg/kg, Group 4 PO 189 mg/kg single, Female
# [9] = male, iv, 2 mg/kg, Group 1 IV 2.0 mg/kg single, Male
# [10] = male, po, 21 mg/kg, Group 2 PO 21 mg/kg single, Male
# [11] = male, po, 63 mg/kg, Group 3 PO 63 mg/kg single, Male
# [12] = male, po, 63 mg/kg, Group 5 PO 63 mg/kg repeated, Day 1, Male
# [13] = male, po, 63 mg/kg, Group 5 PO 63 mg/kg repeated, Day 7, Male
# [14] = male, po, 189 mg/kg, Group 4 PO 189 mg/kg single, Male
compound,measurement,setting,value
"CC(=O)O.Nc1nc(NCCc2ccc(NC3COC3)cc2)nc2nc(-c3ccco3)nn12 [Acetate of Compound 22, 2-(furan-2-yl)-N5-(4-(oxetane-3-ylamino)phenethyl)-[1,2,4]triazolo[1,5-a][1,3,5]triazine-5,7-diamine acetate]",AUC(0-t),[1],127 ± 40.7 µg·h/mL
same,Cmax,[1],38300 ± 8840 ng/mL
same,half-life,[1],3.21 ± 0.615 h
same,Tmax,[1],1 h
same,AUC(0-t),[2],241 ± 39.1 µg·h/mL
same,Cmax,[2],51800 ± 11800 ng/mL
same,half-life,[2],5.26 ± 3.05 h
same,Tmax,[2],2 h
same,AUC(0-t),[3],5.85 ± 0.149 µg·h/mL
same,half-life,[3],4.7 ± 3.22 h
same,AUC(0-t),[4],43.5 ± 4.15 µg·h/mL
same,Cmax,[4],20100 ± 3860 ng/mL
same,half-life,[4],3.73 ± 0.771 h
same,Tmax,[4],0.5 h
same,AUC(0-t),[5],137 ± 40.4 µg·h/mL
same,Cmax,[5],30500 ± 9710 ng/mL
same,half-life,[5],2.91 ± 0.949 h
same,Tmax,[5],1 h
same,AUC(0-t),[6],142 ± 23.1 µg·h/mL
same,Cmax,[6],37700 ± 2380 ng/mL
same,half-life,[6],2.4 ± 0.523 h
same,Tmax,[6],2 h
same,AUC(0-t),[7],157 ± 36.9 µg·h/mL
same,Cmax,[7],45600 ± 1550 ng/mL
same,half-life,[7],2.73 ± 0.359 h
same,Tmax,[7],1 h
same,AUC(0-t),[8],248 ± 55.6 µg·h/mL
same,Cmax,[8],59600 ± 12100 ng/mL
same,half-life,[8],7.63 h
same,Tmax,[8],1 h
same,AUC(0-t),[9],4.87 ± 0.601 µg·h/mL
same,half-life,[9],1.43 h
same,AUC(0-t),[10],42 ± 10.5 µg·h/mL
same,Cmax,[10],16600 ± 4100 ng/mL
same,half-life,[10],3.21 ± 0.304 h
same,Tmax,[10],0.5 h
same,AUC(0-t),[11],87.3 ± 3.04 µg·h/mL
same,Cmax,[11],24200 ± 2340 ng/mL
same,half-life,[11],3.1 ± 0.251 h
same,Tmax,[11],1 h
same,AUC(0-t),[12],79.7 ± 31.5 µg·h/mL
same,Cmax,[12],19900 ± 9080 ng/mL
same,half-life,[12],4.26 ± 2.04 h
same,Tmax,[12],1 h
same,AUC(0-t),[13],98.1 ± 14.7 µg·h/mL
same,Cmax,[13],31000 ± 5750 ng/mL
same,half-life,[13],3.69 ± 0.342 h
same,Tmax,[13],1 h
same,AUC(0-t),[14],235 ± 24.3 µg·h/mL
same,Cmax,[14],44100 ± 4710 ng/mL
same,half-life,[14],3.68 ± 1.22 h
same,Tmax,[14],4 h
